Where no end group is shown, it is not given here. The star is where a group is joined. Boc = CC(C)(C)OC(=O)*
Assays:
[1] = Global warm ischemia by aortic cross clamping, then working Longerdorff heart; type: in vivo, dog
Experimental: Cyclocreatine (25 gm in 500 ml saline) was injected intravenously into a dog one hour before the induction of global warm ischemia. Control dogs received saline. All dogs underwent one hour of global warm ischemia by cross clamping the aorta. After the one hour of warm ischemia, hearts were removed, perfused for an additional four hours with buffer containing 1% cyclocreatine ([…]), and then placed on a working Longerdorff to measure cardiac function. After the initiation of the aortic cross clamping, cyclocreatine-treated heart continued to beat for 9 minutes during warm ischemia, while the control heart stopped beating after 2 minutes. Similarly, myocardial pH was 7.04 in the cyclocreatine-treated heart compared to pH 6.00 in control heart when measured 6 minutes after the induction of warm ischemia.
The results indicated a reduction of the caspase enzyme activities in the cyclocreatine dog (26-76% reduction of baseline) compared to the significant stimulation observed in control dogs (1.44-3.86-fold increase over baseline). […] Cyclocreatine treatment may stimulate the anti-apoptotic members of the family such as Bcl-2 and/or Bcl-x, or inhibit the pro-apoptotic members of the family such as Bak, Bax, and Bim.

[2] = tested on: Neutrophils isolated from human peripheral blood; assay: Inhibition of neutrophil chemotaxis induced by human vascular Nourin (vein graft samples, 96 well chemotaxis plates); type: cell-based
Experimental: Isolated Human Vein Grafts: Patients' leg veins were removed from five patients scheduled for coronary bypass surgery. The samples for each patient were distended for 10 minutes at 300 mm Hg pressure and incubated in buffer (HBSS) for 1 hour at room temperature. Undistended vein grafts were incubated at room temperature in HBSS for one hour and then the solutions were tested for chemotactic activity.
Chemotaxis Assay: The chemotactic activity of vein samples was tested using standard chemotaxis assay. Briefly, neutrophils were isolated from human peripheral blood and labeled by fluorescence dye. These labeled neutrophils were used as migratory cells and placed on the top chamber of the 96 well chemotaxis plates. The vein samples were placed at the bottom wells of the plate. A filter was placed in between and the ability of the tested samples to stimulate the migration of neutrophils across the membrane was determined by incubating the chamber at 37° C. for 1 hour. The standard synthetic chemoattractant f-Met-Leu-Phe (f-MLF (SEQ ID NO:11)) was used as the positive control for 100% chemotactic response. Hank's Balanced Salt Solution (HBSS) was the negative control for random migration. Neutrophil migration was reported as the number of labeled neutrophils detected at the bottom wells which crossed the membrane filter in response to the test solutions. The samples were tested in triplicate wells.
Inhibition of the human vascular Nourin by the N-formylmethionyl blocker t-Boc-FLFLF (SEQ ID NO:2): t-Boc FLFLF (SEQ ID NO:2) is a FPR antagonist and was tested for its ability to inhibit Nourin activity on neutrophil migration. In the chemotaxis chamber, t-Boc-FLFLF (SEQ ID NO:2) was used at a final concentrations of 10^−5 Molar. […] In one human sample, t-Boc-FLFLF (SEQ ID NO:2) inhibited 100% of neutrophil chemotaxis. Similarly, the FPR antagonist Spinorphin inhibited neutrophil chemotaxis stimulated by Nourin.

[3] = tested on: Neutrophils isolated from human peripheral blood; assay: Inhibition of neutrophil chemotaxis induced by chemotactic factor released by H1N1-infected MDCK cells (modified chemotaxis chamber); type: cell-based; conditions: concentrations about 10^-5 to 10^-3 Molar; supernatant of MDCK cells incubated with H1N1 for 6 hours
[4] = tested on: Neutrophils isolated from human peripheral blood; assay: Inhibition of fMLF chemotactic activity (chemotaxis chamber); type: cell-based; conditions: FIG. 3

With `NC1=NCCN1CC(=O)O` [cyclocreatine] the “myocardial pH” value ([1]; 6 minutes after induction of warm ischemia, control pH 6.00) was 7.04, the “reduction of caspase enzyme activities” value ([1]; control dogs 1.44-3.86-fold increase over baseline) was 26-76 % reduction of baseline and the “time heart continued to beat during warm ischemia after aortic cross clamping” value ([1]; dog, 25 gm in 500 ml saline i.v. one hour before ischemia, control 2 minutes) was 9 min. For the same compound, the “TNF-α released by monocytes” value ([1]; dog, in vivo) was “reduced”, the “inflammation/pain and injury induced by inflammation” value ([1]; dog, in vivo) was “reduced” and the “level of the cardiac-derived leukocyte factor” value ([1]; dog, in vivo) was “reduced”. The “contractility on the Longerdorff working heart” value ([1]; one-hour analysis, control strong only first 15-20 minutes) was “strong contractility throughout the one-hour analysis”, the “apoptosis as measured by caspase enzyme activity” value ([1]; treated heart vs controls) was “significant reduction” and the “myocardial ATP compared to controls” value ([1]; treated heart vs controls) was “three-fold increase”. For the same compound, the “intracellular edema as measured by MRI” value ([1]; vs control) was “reduced”, the “myocardial tissue lactic acidosis (per MRI)” value ([1]; vs control) was “reduced” and the “level of cell injury marker malondialdehyde” value ([1]; vs controls) was “reduced”.
With “LVVYPWT [Spinorphin, Leu-Val-Val-Tyr-Pro-Trp-Thr]” the “inhibition of neutrophil chemotaxis stimulated by Nourin” value [2] was “inhibited”.
With “t-Boc-Phe-Leu-Phe-Leu-Phe (Boc-FLFLF; not fully specified (residues 2, 4); printed as t-Boc-Phe-Leu-Phe-Leu-Phe)” the “inhibition of neutrophil chemotaxis induced by viral chemotactic factor” value [3] was 30%-100%, the “inhibition of neutrophil chemotaxis induced by vascular Nourin” value ([2]; 10^-5 M final concentration) was “up to 60%” and the “inhibition of neutrophil chemotaxis induced by vascular Nourin, one human sample” value ([2]; one human sample) was 100%. The “inhibition of fMLF chemotactic activity” value [4] was “inhibits”.

From US8288350B2, “Methods to prevent and treat diseases” (Nour Heart, Inc., priority 2006, dated 2012)
